Measurements published in the supplement of paper PMC10307832.

What follows are cell lines tested with NCC(=O)Nc1ccc(-n2nc(C(F)(F)F)cc2-c2ccc3c(ccc4ccccc43)c2)cc1 + COc1cc2c(Oc3ccc(NC(=O)C4(C(=O)Nc5ccc(F)cc5)CC4)cc3F)ccnc2cc1OCCCN1CCOCC1 [Foretinib] (partner 0.25 µM) (assay: relative viability (nuclei count vs DMSO), 5 days (fraction); higher = more cells survive). Settings: first compound 0.06325 µM.
Summary of the method: (§1)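 Lung cancer cell lines, seeded in 1536-well plates, were treated the following day by pin tool with a single drug or with five library-drug doses (not always all listed) in √10 steps on top of a fixed anchor-drug dose. Cells were fixed and nuclei stained in one step after 5 days, and nuclei were counted. Relative viability is the nuclei count for treated wells divided by that for vehicle wells, reported as medians of duplicate plates.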

Cell Line | relative viability
201T | 1.2
NCI-H1915 | 1.12
HCC-827 | 1.09
LXF-289 | 0.979
NCI-H23 | 0.998
NCI-H647 | 1.32
NCI-H1651 | 0.823
EPLC-272H | 0.688
NCI-H1355 | 1.03
NCI-H3122 | 0.906
NCI-H1437 | 1.31
NCI-H1755 | 0.882
NCI-H2023 | 0.905
HCC-15 | 1.04
NCI-H1793 | 0.661
PC-14 | 1.09
EKVX | 1.05
LC-2-ad | 0.998

Same assay, conditions: first compound 0.2 µM

Cell Line | relative viability
NCI-H2405 | 1.13
HOP-62 | 0.966
A549 | 0.917
LU99A | 0.932
BEN | 0.561
HARA | 0.889
HCC-78 | 0.52
NCI-H322M | 0.97
LCLC-97TM1 | 0.924
NCI-H2009 | 1.38
A-427 | 1.1
NCI-H441 | 0.879
NCI-H661 | 1.04
NCI-H1734 | 0.919
NCI-H460 | 1.09
NCI-H2347 | 1.02
SK-LU-1 | 0.97
NCI-H1395 | 1.07

Cell Line | relative viability
201T | 1.17
NCI-H1915 | 1.09
HCC-827 | 0.98
LXF-289 | 0.967
NCI-H23 | 1
NCI-H647 | 1.26
NCI-H1651 | 0.805
EPLC-272H | 0.752
NCI-H1355 | 1.04
NCI-H3122 | 1.01
NCI-H1437 | 1.25
NCI-H1755 | 0.947
NCI-H2023 | 0.947
HCC-15 | 1.08
NCI-H1793 | 0.562
PC-14 | 0.942
EKVX | 0.602
LC-2-ad | 0.891

Same assay, conditions: first compound 0.6325 µM

Cell Line | relative viability
NCI-H2405 | 1.03
HOP-62 | 1.01
A549 | 1.01
LU99A | 0.79
BEN | 0.681
HARA | 0.961
HCC-78 | 0.577
NCI-H322M | 0.912
LCLC-97TM1 | 0.945
NCI-H2009 | 1.14
A-427 | 1.11
NCI-H441 | 0.85
NCI-H661 | 0.974
NCI-H1734 | 0.766
NCI-H460 | 0.981
NCI-H2347 | 1.03
SK-LU-1 | 0.785
NCI-H1395 | 1

Cell Line | relative viability
201T | 1.1
NCI-H1915 | 1.06
HCC-827 | 0.991
LXF-289 | 0.943
NCI-H23 | 0.975
NCI-H647 | 1.12
NCI-H1651 | 0.789
EPLC-272H | 0.581
NCI-H1355 | 1.02
NCI-H3122 | 0.962
NCI-H1437 | 1.28
NCI-H1755 | 0.921
NCI-H2023 | 0.731
HCC-15 | 1.1
NCI-H1793 | 0.6
PC-14 | 0.98
EKVX | 0.77
LC-2-ad | 0.954

Same assay, conditions: first compound 2 µM

Cell Line | relative viability
NCI-H2405 | 1.11
HOP-62 | 1.04
A549 | 0.971
LU99A | 0.853
BEN | 0.657
HARA | 0.974
HCC-78 | 0.621
NCI-H322M | 1.04
LCLC-97TM1 | 0.96
NCI-H2009 | 1.25
A-427 | 0.959
NCI-H441 | 0.97
NCI-H661 | 1.07
NCI-H1734 | 0.9
NCI-H460 | 1.03
NCI-H2347 | 0.833
SK-LU-1 | 0.85
NCI-H1395 | 0.981

Cell Line | relative viability
201T | 1.15
NCI-H1915 | 1.11
HCC-827 | 1.08
LXF-289 | 0.968
NCI-H23 | 0.987
NCI-H647 | 1.12
NCI-H1651 | 0.803
EPLC-272H | 0.79
NCI-H1355 | 0.981
NCI-H3122 | 0.888
NCI-H1437 | 1.22
NCI-H1755 | 0.905
NCI-H2023 | 0.859
HCC-15 | 1.07
NCI-H1793 | 0.92
PC-14 | 0.944
EKVX | 0.626
LC-2-ad | 0.984

These cell lines were tested with NCC(=O)Nc1ccc(-n2nc(C(F)(F)F)cc2-c2ccc3c(ccc4ccccc43)c2)cc1 + CS(=O)(=O)N1CCN(Cc2cc3nc(-c4cccc5[nH]ncc45)nc(N4CCOCC4)c3s2)CC1 [Pictilisib] (partner 1 µM) in the same assay as above. Settings: first compound 0.02 µM.
Summary of the method: as §1

Cell Line | relative viability
NCI-H2405 | 0.415
HOP-62 | 0.775
A549 | 0.459
LU99A | 0.338
BEN | 0.54
HARA | 0.418
HCC-78 | 0.208
NCI-H322M | 0.516
LCLC-97TM1 | 0.29
NCI-H2009 | 0.734
A-427 | 0.595
NCI-H441 | 0.469
NCI-H661 | 0.453
NCI-H1734 | 0.451
NCI-H460 | 0.406
NCI-H2347 | 0.831
SK-LU-1 | 0.651
NCI-H1395 | 0.648

Cell Line | relative viability
201T | 0.664
NCI-H1915 | 0.79
HCC-827 | 1.01
LXF-289 | 0.868
NCI-H23 | 0.436
NCI-H1651 | 0.58
EPLC-272H | 0.28
NCI-H1355 | 0.388
NCI-H3122 | 0.696
NCI-H1437 | 0.542
NCI-H1755 | 0.384
NCI-H2023 | 0.229
HCC-15 | 0.705
NCI-H1793 | 0.263
PC-14 | 0.606
EKVX | 0.531
LC-2-ad | 0.428
